Data on two compounds can be found in patent US11007206B2, “Cyclic boronic acid ester derivatives and therapeutic uses thereof” (Melinta Subsidiary Corp., priority 2012, dated 2021).

For one data set, the system named is KPC-producing strains. Put plainly: Time-kill assays of Biapenem with Compound I (Example 4). It counts as cell-based, Enterobacteriaceae. As to conditions: KPC-producing strains (Biapenem MICs of 16-32 ug/ml). How it is done:
The evaluation of Compound I in combination with the carbapenem antibiotic Biapenem against multi-drug resistant strains of Enterobacteriaceae, including those producing serine carbapenemases were also conducted. Antibiotic potentiation activity of Compound I was studied in checkerboard MIC experiments and time-kill assays. The MICs of Biapenem were determined alone or in combination with Compound I added at fixed concentrations between 0.5 and 16 ug/ml) against characterized and engineered isolates producing various beta-lactamases, as well as in geographically diverse panels of multi-drug resistant strains of Enterobacteriaceae (including strains that express the most relevant beta-lactamases).

The next data set in a line: in vivo. Set-up: species or system Swiss-Webster mice. As to conditions: mouse, ip. As for the experimental part:
Example 2 provides a summary of two pharmacokinetic studies of Biapenem conducted in Swiss-webster mice. The pharmacokinetics of 100 mg/kg and 25 mg/kg of Biapenem via the intraperitoneal route was discussed below.
Biapenem power was purchased from Hisun Pharmaceuticals. 20 mg of Biapenem was dissolved in 0.1 M NaH2PO4 for a basic stock solution. For animal studies, this stock solution was further diluted in 0.9% saline to the appropriate concentration.
The specifications for animals used on this study were as follows: • Species: Mouse • Strain: CFW (Swiss) • Gender: Female • Source: Harlan Laboratories (Livermore, Calif.) • Number of Animals: 33 for each dose • Body Weight Range: 18-22 g at the start of the study
After acclimation, mice were administered a single intraperitoneal dose of biapenem at 25 or 100 mg/kg. […] Blood samples (one sample per animal) were collected by cardiac puncture in a heparin containing tube. The collected heparin tubes were centrifuged within 5 min of collection at 12000 g for 5 min to obtain plasma. The plasma samples were stored on −80° C. until analyzed.
Biapenem standard curves were prepared in 50% plasma-50% 1M MOPS buffer, pH=7.4 from 1 to 250 ug/mL. 20 uL of sample or standard was added into a 96-well deep well plate. Then 500 uL of 10% water-45% methanol-45% acetonitrile containing 2 ug/mL of meropenem was used as an internal standard. The plate was vortexed for 15 min. at 3,000 RPM. 50 uL of supernatant was removed and added 300 uL of water. 10 uL of samples were injected onto an HPLC-MS system for quantification.
The HPLC-MS conditions for the Biapenem plasma analysis are as follows: • Column: Supelco Discovery HS F5 or equivalent pentafluorophenyl column, 5 um, 50×2.1 mm. • Flow rate: 0.6 mL/min. • Mobile phase A: 0.1% formic acid in water. • Mobile phase B: 0.1% formic acid in acetonitrile. • Gradient: 5-70% B in 1.9 min. • Mass spectrometer: Positive ion mode with electrospray ionization. • MS/MS: Biapenem-Q1-m/e=350.8, Q3-m/e=110.1. • meropenem-Q1-m/e=384.1, Q3-m/e=141.1.
Serum concentrations were determined using HPLC. Serum concentrations were fit by using Non-compartmental model of WinNonlin Software (Pharsight. Version 5.3, Mountain View, Calif.).

Where [1] appears, read: female, CFW (Swiss-Webster), 25 mg/kg.
Where [2] appears, read: female, CFW (Swiss-Webster), 100 mg/kg.
The mark [3] stands for this setting: female, CFW (Swiss-Webster), 100 mg/kg, Calc. Conc. (plasma concentration).

For `O=C(O)C[C@@H]1CC[C@H](NC(=O)Cc2cccs2)B(O)O1` [Compound I], the “Time-kill: effect of the addition of Compound I to Biapenem” value in the data set with KPC-producing strains is “significant bactericidal synergism”.
As usually defined, the Cmax is the peak of the concentration-time curve. As a reminder, the half-life is the time in which the quantity being followed falls by half. In the data set “in vivo” (setting [1]), `C[C@@H](O)[C@H]1C(=O)N2C(C(=O)[O-])=C(SC3Cn4cnc[n+]4C3)[C@H](C)[C@H]12` (stereo partly shown) [Biapenem] showed a Cl of 1.6 L/h/kg, a Cmax of 31.2 µg/mL and a half-life of 10.2 min. In the data set “in vivo” (setting [2]), this compound gave a Cl of 0.96 L/h/kg, a maximum concentration (Cmax) of 286 µg/mL and a half-life of 12.6 min. In addition, in “in vivo” (setting [3]), the concentration at 0.08 h is 1770 ng/mL, the concentration at 0.25 h is 68.4 µg/mL, the concentration at 0.5 h is 120 ng/mL and the concentration at 0.75 h is 30500 ng/mL. For the same compound, in the data set “in vivo” (setting [3]), the concentration at 3 h was 12.3 ng/mL and the concentration at 4 h was 10.2 ng/mL. In addition, in the data set “in vivo” (25 mg/kg), the AUC is 15.56 mg·h/kg and the “Calc. Conc. (plasma concentrations of Biapenem)” value is on record as “No Peak”. In “in vivo” (100 mg/kg), the AUC was 103.55 mg·h/kg.
